Where two headings read alike, the source gives them in different places.
How the values were obtained:
[1] = system: cells without virus infection; assay: Cytotoxicity in parallel to the 229E CPE assay, without virus infection, CellTiter Glo; settings: read-out: 229E CC50; without virus infection
Method: (§1) Reagents and instruments used in this assay include luminescent cell viability assay kit CellTiter Glo (Promega) and Microplate Reader Synergy2 (BioTek).
(§2) The cytotoxicity of compounds was assessed under the same conditions, but without virus infection, in parallel. Cell viability was measured with CellTiter Glo. The antiviral activity and cytotoxicity of compounds were expressed as % Inhibition and % Viability, respectively, and calculated with formulas.

HCoV 229E = HCoV 229E cytopathic effect (CPE) assay, CellTiter Glo; type: cell-based, human coronavirus (HCov) 229E; settings: protection of virus-induced CPE
229E Mpro = 229E Mpro (Human coronavirus 229E, UniProt P0C6X1); assay: 229E Mpro enzymatic assay (standard methods, SARS-CoV2 Mpro assay given as exemplary); type: biochemical, human coronavirus (HCov) 229E
Chain of 229E Mpro (P0C6X1 2966-3267): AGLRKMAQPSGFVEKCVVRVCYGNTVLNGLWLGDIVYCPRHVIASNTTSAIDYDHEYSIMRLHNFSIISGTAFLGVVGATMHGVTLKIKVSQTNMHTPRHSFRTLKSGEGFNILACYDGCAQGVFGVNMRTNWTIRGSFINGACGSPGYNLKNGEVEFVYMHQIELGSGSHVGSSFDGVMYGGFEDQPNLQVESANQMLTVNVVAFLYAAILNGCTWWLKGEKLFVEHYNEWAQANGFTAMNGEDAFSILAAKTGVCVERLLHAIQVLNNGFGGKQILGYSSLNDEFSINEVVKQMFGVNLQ
Summary of the method: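 Run by standard methods, with the SARS-CoV-2 Mpro protocol given as the model: E. coli-expressed C-His6 protease at 25 nM and substrate at 25 μM (Km 13.5 μM). Buffer pH 7.3 with 5 mM TCEP and 0.1% BSA; % inhibition versus controls fitted to variable-slope log(inhibitor)-response for IC50.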

HCov OC43 = assay: HCoV OC43 cytopathic effect (CPE) assay, CellTiter Glo; type: cell-based, human coronavirus (HCov) OC43
[2] = molecular target: COVID-19 (nCoV-2019, SARS-CoV2) Mpro (Severe acute respiratory syndrome coronavirus 2, UniProt P0DTD1); assay: COVID-19 (nCoV-2019, SARS-CoV2) Mpro enzymatic assay; type: biochemical; settings: 25 nM Mpro, 25 μM substrate; read-out: COVID-19 Mpro IC50
[3] = Cytotoxicity in parallel to the 229E CPE assay, without virus infection, CellTiter Glo; settings: 229E CC50, without virus infection
Method: as §1, §2

[4] = Betacoronavirus 1, OC43, read-out: OC43 IC50 (uM) MEDIAN, median

Q: Which CC50 [1] does the source give for `COc1cncc(C(C(=O)NC2CCCCC2)N(C(=O)[C@H]2C[C@@H](O)CN2C#N)c2ccc(C(C)(C)C)cc2)c1` (single isomer, unassigned) [679 Isomer 1] here?
A: > 30 µM

Q: What about the EC50 (HCoV 229E; unidentified human coronavirus) of the same compound?
A: < 2 µM

Q: What about the EC50 (229E Mpro; 229E Mpro EC50) of the same compound?
A: < 2 µM

Q: And the IC50 (HCov OC43; [4])?
A: < 2 µM

Q: And the IC50 [2]?
A: < 2 µM

Q: With `COc1cncc(C(C(=O)NC2CCCCC2)N(C(=O)[C@H]2C[C@@H](O)CN2C#N)c2ccc(C(C)(C)C)cc2)c1` (single isomer, unassigned) [679 Isomer 2] as the compound, how does the CC50 [1] read?
A: 10 to 30 µM

Q: And the EC50 (HCoV 229E)?
A: 2 to 10 µM

Q: What about the EC50 (229E Mpro; read-out: 229E Mpro EC50) of the same compound?
A: < 2 µM

Q: And the IC50 (HCov OC43; read-out: OC43 IC50 (uM) MEDIAN, median)?
A: 2 to 10 µM

Q: And the IC50 [2]?
A: 10 to 30 µM

Q: Which CC50 [3] does the source give for `CC(C)(C)c1ccc(N(C(=O)[C@H]2COCCN2C#N)C(C(=O)NC2CCCCC2)c2cccnc2)cc1` (single isomer, unassigned) [Compound 202 Isomer 2] here?
A: > 30 µM

Q: And the EC50 (HCoV 229E)?
A: < 2 µM

Q: What about the EC50 (229E Mpro; read-out: 229E Mpro EC50) of the same compound?
A: < 2 µM

Q: What about the IC50 (HCov OC43; [4]) of the same compound?
A: < 2 µM

Q: And the IC50 [2]?
A: < 2 µM

Q: What does the source list for `CN1CCN(C#N)C(C(=O)N(c2ccc(C(C)(C)C)cc2)C(C(=O)NC2CCCCC2)c2cccnc2)C1` (single isomer, unassigned) [Compound 217 Isomer 2, N-(4-tert-butylphenyl)-1-cyano-N-[2-(cyclohexylamino)-2-oxo-1-(3-pyridyl)ethyl]-4-methyl-piperazine-2-carboxamide]?
A: CC50 [3]: > 30 µM; EC50 (HCoV 229E; unidentified human coronavirus): < 2 µM; EC50 (229E Mpro; 229E Mpro EC50): < 2 µM; IC50 [2]: < 2 µM

Q: With `C[C@@H]1C[C@H](C(=O)N(c2ccc(C(C)(C)C)cc2)C(C(=O)NC2CCCCC2)c2cccnc2)N(C#N)C1` (single isomer, unassigned) [Compound 232 Isomer 2] as the compound, how does the CC50 [3] read?
A: 10 to 30 µM

Q: What about the EC50 (HCoV 229E; unidentified human coronavirus) of the same compound?
A: < 2 µM

Q: And the EC50 (229E Mpro; 229E Mpro EC50)?
A: < 2 µM

Q: And the IC50 (HCov OC43; [4])?
A: 2 to 10 µM

Q: And the IC50 [2]?
A: 2 to 10 µM

Q: Which CC50 [3] does the source give for `C[C@@H]1CC[C@H](C(=O)N(c2ccc(C(C)(C)C)cc2)C(C(=O)NC2CCCCC2)c2cccnc2)N1C#N` (single isomer, unassigned) [Compound 244 Isomer 1] here?
A: > 30 µM

Q: And the EC50 (HCoV 229E; unidentified human coronavirus)?
A: < 2 µM

Q: What about the EC50 (229E Mpro; 229E Mpro EC50) of the same compound?
A: < 2 µM

Q: And the IC50 [2]?
A: 2 to 10 µM

Q: Which results are given for `CC(C)(C)c1ccc(N(C(=O)[C@H]2C[C@@H](O)CN2C#N)C(C(=O)NC2CCCCC2)c2cccnc2)cc1` (single isomer, unassigned) [Compound 254 Isomer 2]?
A: CC50 [3]: > 30 µM; EC50 (229E Mpro; read-out: 229E Mpro EC50): < 2 µM; IC50 (HCov OC43; [4]): < 2 µM; IC50 [2]: < 2 µM

Q: Which CC50 [3] does the source give for `CC1(C)C[C@H](C(=O)N(c2ccc(C(C)(C)C)cc2)C(C(=O)NC2CCCCC2)c2cccnc2)N(C#N)C1` (single isomer, unassigned) [Compound 268 Isomer 2] here?
A: 10 to 30 µM

Q: What about the EC50 (HCoV 229E; unidentified human coronavirus) of the same compound?
A: < 2 µM

Q: And the EC50 (229E Mpro; 229E Mpro EC50)?
A: < 2 µM

Q: And the IC50 (HCov OC43; [4])?
A: 2 to 10 µM

Q: What about the IC50 [2] of the same compound?
A: < 2 µM

Q: With `CC(C)(C)c1ccc(N(C(=O)c2c[nH]cn2)C(C(=O)NC2CCCCC2)c2cccnc2C#N)cc1` (stereo not drawn) [Compound 100, N-(4-tert-butylphenyl)-N-[1-(2-cyano-3-pyridyl)-2-(cyclohexylamino)-2-oxo-ethyl]-1H-imidazole-5-carboxamide] as the compound, how does the CC50 [3] read?
A: > 30 µM

Q: And the EC50 (HCoV 229E; unidentified human coronavirus)?
A: 2 to 10 µM

Q: And the EC50 (229E Mpro; 229E Mpro EC50)?
A: 2 to 10 µM

Q: And the IC50 [2]?
A: 10 to 30 µM

Q: With `CC(C)(C)c1ccc(N(C(=O)c2cnc[nH]2)C(C(=O)NC2CCCCC2)c2cncnc2C#N)cc1` (stereo not drawn) [Compound 103, N-(4-(tert-butyl)phenyl)-N-(1-(4-cyanopyrimidin-5-yl)-2-(cyclohexylamino)-2-oxoethyl)-1H-imidazole-5-carboxamide] as the compound, how does the CC50 [3] read?
A: > 30 µM

Q: And the EC50 (HCoV 229E; unidentified human coronavirus)?
A: 10 to 30 µM

Q: What about the EC50 (229E Mpro; 229E Mpro EC50) of the same compound?
A: 2 to 10 µM

Q: What about the IC50 [2] of the same compound?
A: 10 to 30 µM

Q: Which results are given for `CC(C)(C)c1ccc(C(C(=O)c2cnc[nH]2)C(C(=O)NC2CCCCC2)c2nccnc2C#N)cc1` (stereo not drawn) [Compound 105]?
A: CC50 [3]: > 30 µM; EC50 (HCoV 229E; unidentified human coronavirus): 2 to 10 µM; EC50 (229E Mpro; 229E Mpro EC50): 10 to 30 µM; IC50 [2]: > 30 µM

Q: What does the source list for `Cc1nnsc1C(C(=O)NC1CCCCC1)N(C(=O)c1cnc[nH]1)c1ccc(C(C)(C)C)cc1` (stereo not drawn) [Compound 109]?
A: CC50 [3]: > 30 µM; EC50 (HCoV 229E; unidentified human coronavirus): 2 to 10 µM; EC50 (229E Mpro; 229E Mpro EC50): 2 to 10 µM; IC50 [2]: > 30 µM

Q: Which CC50 [3] does the source give for `CC(C)(C)c1ccc(N(C(=O)c2cnc[nH]2)C(C(=O)NC2CCCCC2)c2cccnc2)c(C#N)n1` (stereo not drawn) [Compound 117] here?
A: > 30 µM

Q: And the EC50 (HCoV 229E; unidentified human coronavirus)?
A: 2 to 10 µM

Q: And the EC50 (229E Mpro; 229E Mpro EC50)?
A: 2 to 10 µM

Q: What about the IC50 [2] of the same compound?
A: > 30 µM

Q: With `CC(C)(C)c1ccc(N(C(=O)c2nsnc2Cl)C(C(=O)NC2CCCCC2)c2cccnc2)cc1` (stereo not drawn) [Compound 123, N-(4-(tert-butyl)phenyl)-4-chloro-N-(2-(cyclohexylamino)-2-oxo-1-(pyridin-3-yl)ethyl)-1,2,5-thiadiazole-3-carboxamide] as the compound, how does the CC50 [3] read?
A: > 30 µM

Q: And the EC50 (HCoV 229E; unidentified human coronavirus)?
A: < 2 µM

Q: What about the EC50 (229E Mpro; 229E Mpro EC50) of the same compound?
A: < 2 µM

Q: And the IC50 [2]?
A: < 2 µM

Q: For `CC(C)(C)c1ccc(N(C(=O)c2nccnc2C#N)C(C(=O)NC2CCCCC2)c2cccnc2)cc1` (stereo not drawn) [Compound 124, N-(4-(tert-butyl)phenyl)-3-cyano-N-(2-(cyclohexylamino)-2-oxo-1-(pyridin-3-yl)ethyl)pyrazine-2-carboxamide], which CC50 [3] is on record?
A: > 30 µM

Q: And the EC50 (HCoV 229E; unidentified human coronavirus)?
A: 10 to 30 µM

Q: What about the EC50 (229E Mpro; 229E Mpro EC50) of the same compound?
A: 10 to 30 µM

Q: And the IC50 [2]?
A: > 30 µM

Q: With `CC(C)(C)c1ccc(N(C(=O)C2CN(C#N)C2)C(C(=O)NC2CCCCC2)c2cccnc2)cc1` (stereo not drawn) [Compound 125, N-(4-tert-butylphenyl)-1-cyano-N-[2-(cyclohexylamino)-2-oxo-1-(3-pyridyl)ethyl]azetidine-3-carboxamide] as the compound, how does the CC50 [3] read?
A: 10 to 30 µM

Q: What about the EC50 (HCoV 229E; unidentified human coronavirus) of the same compound?
A: 2 to 10 µM

Q: And the EC50 (229E Mpro; 229E Mpro EC50)?
A: 10 to 30 µM

Q: And the IC50 [2]?
A: 10 to 30 µM

Q: What does the source list for `CC(C)(C)c1ccc(N(C(=O)[C@H]2CCCN2C#N)C(C(=O)N2CC(F)C2)c2cccnc2)cc1` (stereo partly drawn) [Compound 952, (2R)—N-(4-(tert-butyl)phenyl)-1-cyano-N-(2-(3-fluoroazetidin-1-yl)-2-oxo-1-(pyridin-3-yl)ethyl)pyrrolidine-2-carboxamide]?
A: EC50 (HCoV 229E; unidentified human coronavirus): 2 to 10 µM; EC50 (229E Mpro; 229E Mpro EC50): < 2 µM; IC50 (HCov OC43; [4]): 2 to 10 µM; IC50 [2]: 2 to 10 µM

Q: With `CN1CCN(C(=O)C(c2cccnc2)N(C(=O)[C@H]2CCCN2C#N)c2ccc(C(C)(C)C)cc2)CC1=O` (stereo partly drawn) [Compound 969] as the compound, how does the EC50 (HCoV 229E; unidentified human coronavirus) read?
A: 2 to 10 µM

Q: What about the EC50 (229E Mpro; 229E Mpro EC50) of the same compound?
A: < 2 µM

Q: What about the IC50 (HCov OC43; [4]) of the same compound?
A: 2 to 10 µM

Q: And the IC50 [2]?
A: < 2 µM

Q: Which EC50 (HCoV 229E; unidentified human coronavirus) does the source give for `CC(C)(O)CNC(=O)C(c1cccnc1)N(C(=O)[C@H]1CCCN1C#N)c1ccc(C(C)(C)C)cc1` (stereo partly drawn) [Compound 1119] here?
A: 2 to 10 µM

Q: What about the EC50 (229E Mpro; 229E Mpro EC50) of the same compound?
A: < 2 µM

Q: What about the IC50 (HCov OC43; [4]) of the same compound?
A: 2 to 10 µM

Q: And the IC50 [2]?
A: 2 to 10 µM

Source: patent publication US20220380347A1, “INHIBITORS OF CYSTEINE PROTEASES AND METHODS OF USE THEREOF” (Pardes Biosciences, Inc., priority 2020, published 2022)
